The values that follow come from ChEMBL document CHEMBL5316324, “Discovery, Characterization, and Engineering of LvIC, an α4/4-Conotoxin That Selectively Blocks Rat α6/α3β4 Nicotinic Acetylcholine Receptors” (J Med Chem, 2023).

In test [1] the target is Nicotinic acetylcholine receptor alpha6/alpha3/beta4 (Rattus norvegicus) (UniProt P04757+P12392+P43143). In words: Potency index, ratio of [T5A,P60]BuIA to test compound for rat alpha6/alpha3beta4 nAChR expressed in Xenopus Oocytes assessed as fold increase in presence of acetylcholine by Voltage-clamp recording. Type of test: cell-based. The following applies: Oocyte.
The target of test [2] is Neuronal acetylcholine receptor; alpha3/beta4 (Rattus norvegicus) (UniProt P04757+P12392). In words: Potency index, ratio of [T5A,P60]BuIA to test compound for rat alpha3beta4 nAChR expressed in Xenopus oocytes assessed as fold decrease in presence of acetylcholine by Voltage-clamp recording. It is filed as cell-based. The following applies: Oocyte.

Peptide text beside a SMILES is read from it.

With `CC(C)[C@H](NC(=O)[C@@H]1CCCN1C(=O)[C@H](CC(N)=O)NC(=O)[C@H](C)NC(=O)[C@H](CS)NC(=O)[C@H](CS)NC(=O)[C@@H](N)CCCNC(=N)N)C(=O)N[C@@H](CS)C(=O)N[C@@H](CC(N)=O)C(=O)NCC(=O)N[C@@H](CCCCN)C(=O)N[C@@H](Cc1cnc[nH]1)C(=O)N[C@@H](CS)C(N)=O` (H-RCCANPVCNGKHC-NH2), the fold change (FC) stood at 3 in test [1] and 10 in test [2].
